Data set [1] concerns Balb/c male mice, CAIA model. It is filed as in vivo, mouse. Particulars: for ankle thickness: C4BP(β−) 50 μg sc d3 and d5, dexamethasone 1 mg/kg po d5-11, Enbrel 30 mg/kg sc d5-11; for body weight vs CAIA control group: mouse, in vivo. From the text: Collagen-antibody induced arthritis (CAIA) is a simple mouse model of human rheumatoid arthritis (RA) induced by the systemic administration of a cocktail of monoclonal antibodies directed against conserved auto-antigenic collagen type II epitopes, followed by a single injection of lipopolysaccharide (LPS). CAIA is a useful model to study the effector inflammatory phase of arthritis without involving the priming phase of the immune response. The murine CAIA model shares several clinical, immunological and pathological features with RA. Therefore, this model is useful to study the pathogenic mechanisms involved in RA disease as well as for testing new therapies.
Balb/c male mice aged 7-8 weeks were supplied by Envigo. The animals were acclimated during 12 days. The animals were maintained in an environmentally controlled room with ventilation, temperature (22±2° C.), relative humidity (35-65%), and cycle light/dark (12 h/12 h). The animals were housed in groups of 3-5 animals/cage. The maintenance diet was supplied by Harlan Interfauna Ibérica, S. L. (“2014 Harlan Teklad Global Diets”) and they were feed diet and water ad libitum.
Plasmatic C4BP(β−) was supplied at a concentration of 6.2 mg/ml. C4BP(β−) solutions were prepared to the desired concentration 0.33 mg/ml (for 50 μg doses) by dilution with Dulbecco's phosphate-buffered saline (DPBS) of C4BP(β−) 6.2 mg/ml stock solution.
Two reference compounds were used: dexamethasone (Sigma, Ref. D1756) and Enbrel® (etanercept) (Pfizer, Ref. 655950).
Reference compound dexamethasone was dissolved in vehicle (0.1% Tween-80+99% carboxymethyl cellulose (CMC) (0.5% w/v) in water at a concentration of 0.1 mg/ml.
Enbrel® was prepared at 6 mg/ml in DPBS by dilution of 50 mg/mL stock solution.
Experimental Procedure Day 0: Arthritis Induction
On day 0, animals for experimental group C4BPd3 were randomly selected (n=8) and identified using tail code numbers and weighted.
Each mouse was sensitized by the administration of 2 mg anti-type II collagen antibodies cocktail (ArthritoMAB™ cocktail solution, 0.2 mL, i.v., day 0) in the caudal vein.
Day 3: LPS Synchronization
Animals were intraperitoneally administered with 0.1 mL of LPS solution (0.7 mg/ml, 70 μg/animal).
50 μg of C4BP(β−) were administered subcutaneously at day 3 to treatment group C4BPd3.
50 μg of C4BP(β−) were administered subcutaneously at day 5 to treatment group C4BPd3.
Day 5: Animal Distribution
On day 5 after sensitization, the rest of the animals developing clinical signs of arthritis (n=18) were evaluated and distributed in base of CAIA+incidence. Animals were homogeneously randomized (arthritis score) into the CAIA control group, dexamethasone (1 mg/kg at days 5-11, p.o.) and Enbrel®-treated groups (30 mg/kg at days 5-11, s.c.) (n=6). Animals were identified using tail code numbers and weighted.
Group 2 was not included in the distribution because of the previous test item administration.
The arthritis score was determined using the criteria of Table 9.
Treatment: • C4BPd3 group: 50 μg of C4BP(β−) were subcutaneously injected to animals on days 3 and 5. Volume: 0.150 mL. • Reference compound treatments and CAIA control groups (days 5-11): • Enbrel®: 30 mg/kg of Enbrel® was subcutaneously administered to Enbrel group from days 5 to 11. Volume: 5 mL/kg. • Dexamethasone: 1 mg/kg dexamethasone was orally administered to dexamethasone group from days 5 to 11. Volume: 10 mL/kg. • CAIA control group: 0.150 mL of DPBS was subcutaneously administered from days 5 to 11. Arthritis Monitoring:
Body weights were registered daily from days 0-12 in C4BPd3 and from days 5-12 in CAIA control, dexamethasone and Enbrel® groups. Arthritis scores were determined by the same observer in order to avoid observer bias.
The study was finished at day 12.
Animals were anesthetized with isoflurane. Ankles and wrists thickness were measured using a dial thickness gauge. Serum samples were collected and stored at −20° C. […]

The subject of data set [2] is human monocyte-derived DCs. Briefly: Immunomodulatory activity over human monocyte-derived DCs: CD83/CD86 surface expression by flow cytometry after LPS maturation. It is filed as cell-based. Particulars: Example 1. How it is done: In Vitro Functional Assessment of the Immunomodulatory Activity of Full-Length C4BP(β−) and C4BP(β−) Variants Over DCs
The inventors used for the in vitro study both C4BP(β+) (WT) and recombinant C4BP(β−) isoforms, and the above-referred mutants or variants: Mutant 1 and Mutant 2. C4BP(β+) isoforms refer to the major C4BP α7β1 plus the minor C4BP α6β1 isoforms (both in complex with ProS) purified from pooled human plasma.
RPMI 1640 was supplemented with 100 μg/ml of streptomycin, 100 IU/ml of penicillin, 2 mM L-glutamine (all from Invitrogen, Carlsbad, CA) and 10% heat-inactivated fetal bovine serum (Linus, Cultek, Spain) (complete medium), unless otherwise stated.
Peripheral blood mononuclear cells (PBMCs) were obtained from buffy coat preparations collected from healthy donors from the Blood and Tissue Bank (Barcelona, Spain) after Ficoll-Paque™ density centrifugation (GE Healthcare Bio-Sciences AB; Uppsala, Sweden). For surface phenotype determination, monocytes were plated at 1×10^6 cells/ml in 60 mm culture plates (Corning, Spain), in RPMI 1640 medium without serum, and allowed to adhere for 2 h at 37° C. in 5% CO2. The non-adherent cells were removed by washing in PBS.
Monocyte-derived DCs were generated supplementing the monocyte cultures with complete RPMI 1640 medium plus GM-CSF (800 UI/ml) and IL-4 (500 UI/ml) (both from Gentaur, Kampenhout, Belgium) at day 0 and day 3 of culture. For DC maturation, at day 5 iDCs were further stimulated for 48 h with 5 μg/ml LPS (Escherichia coli 055.B5, Sigma L2880, Copenhagen, Denmark).
Staining using the fluorescent dye 7-amino-actinomycin D (7-AAD) (BD Pharmigen) and flow cytometry analysis was employed to assess the viability status of C4BP-treated and untreated DCs.
Cell surface phenotypes were analyzed by flow cytometry using the following mAbs: FITC-conjugated anti-CD83 (HB15a) and PE-conjugated anti-CD86 (HA5.2B7) (all from Beckman-Coulter). The respective isotype controls FITC-conjugated anti-IgG2b (H2) and PE-conjugated anti-IgG2b (H2), were from the same commercial sources. After washing with PBS, cells were subsequently stained with 3 μl mAb/10^5 cells in 100 μl of FACS buffer (PBS containing 1% BSA and 0.1% sodium azide) for 20 min at room temperature. To exclude dead cells and debris, DCs were gated according to forward scatter (FSC) and side scatter (SSC) parameters. Stained cells were analyzed using a FACSCalibur (Becton Dickinson, Franklin Lakes, NJ) equipped with CellQuestPro software (Becton Dickinson).
In Vitro Functional Assessment of C4BP(β−) Immunomodulatory Activity Over DCs
The inventors used for the in vitro study both C4BP(+) and C4BP(β−) isoforms. C4BP(3+) isoforms refer to the major C4BP α7β1 plus the minor C4BP α6β1 isoforms (both in complex with ProS) purified from pooled human plasma, as previously described (Dahlbäck B. 1983. Biochem J., 209:847-56).
(A flow cytometer gives signals particle by particle.)

As to `C[C@@H]1C[C@H]2[C@@H]3CCC4=CC(=O)C=C[C@]4(C)[C@@]3(F)[C@@H](O)C[C@]2(C)[C@@]1(O)C(=O)CO` [dexamethasone], in data set [1] (C4BP(β−) 50 μg sc days 3 and 5, dexamethasone 1 mg/kg po days 5-11), the “inhibition of arthritis score vs. CAIA controls AUC” value came out at 73%. The compound also came in with an ankle thickness in data set [1] (day 12) of 2.63±0.05 mm. For the same compound, the “body weight vs CAIA control group” value in data set [1] was “No remarkable differences”.

As for C4BP(CCP5-CCP8)(α7β0) [Mutant 1], the “immunomodulatory activity over DCs” value in data set [2] is “retains the immunomodulatory activity over DCs”.

For etanercept [Enbrel], the “inhibition of arthritis score vs. CAIA controls d12” value in data set [1] (Enbrel 30 mg/kg sc days 5-11) came to 47%. The ankle thickness in data set [1] (day 12) amounted to 2.73±0.04 mm. Moreover, the “wrist thickness vs. CAIA control” value in data set [1] (day 12, regimens as Table 8) is reported as “No changes”. Further, the “body weight vs CAIA control group” value in data set [1] was “No remarkable differences”. Also, the “arthritis scores / progression of arthritis” value in data set [1] (regimens as Table 8, vs CAIA control group) is “progressive reduction of arthritis scores over time”.

The values above are taken from patent US12006343B2, “C4BP-based compounds for treating immunological diseases” (FUNDACIO INSTITUT D'INVESTIGACIO BIOMEDICA DE BELLVITGE …, priority 2017, dated 2024).
